Reference: patent publication EP4230621A1, “SUBSTITUTED N-BENZOIC ACID URACILS, THEIR SALTS AND USE OF SAID COMPOUNDS AS HERBICIDAL AGENTS” (Bayer AG, priority 2022, dated 2023)

Experiments:
Format in all cases: in vivo
Abutilon theophrasti = experiment: Post-emergence herbicidal action against ABUTH (greenhouse pot test); conditions: visual rating after ca. 3 weeks vs untreated controls (100% = plants dead, 0% = like controls)
Description: (§1) Die folgenden Abkürzungen werden für die in den folgenden Tabellen aufgeführten Kultur- und Schadpflanzen verwendet: ABUTH: Abutilon theophrasti ALOMY: Alopecurus myosuroides AMARE: Amaranthus retroflexus BRSNS: Brassica napus DIGSA: Digitaria sanguinalis ECHCG: Echinochloa crus-galli GLXMA: Glycine max KCHSC: Kochia scoparia LOLRI: Lolium rigidum MATIN: Matricaria inodora ORYZA: Oryza sativa PHPBU: Pharbitis purpurea POLCO: Polygonum convolvulus SETVI: Setaria viridis VERPE: Veronica persica VIOTR: Viola tricolor TRZAS: Triticum aestivum ZEAMX: Zea mays
(§2) Samen von mono- bzw. dikotylen Unkrautpflanzen wurden in Kunststoff- oder Holzfasertöpfen in sandigem Lehmboden ausgelegt, mit Erde abgedeckt und im Gewächshaus unter kontrollierten Wachstumsbedingungen angezogen. 2 bis 3 Wochen nach der Aussaat wurden die Versuchspflanzen im Einblattstadium behandelt. Die in Form von benetzbaren Pulvern (WP) oder als Emulsionskonzentrate (EC) formulierten erfindungsgemäßen Verbindungen wurden dann als wässrige Suspension bzw. Emulsion unter Zusatz von 0,5% Additiv mit einer Wasseraufwandmenge von umgerechnet 600 1/ha auf die grünen Pflanzenteile gesprüht. Nach ca. 3 Wochen Standzeit der Versuchspflanzen im Gewächshaus, unter optimalen Wachstumsbedingungen, wurde die Wirkung der Präparate visuell im Vergleich zu unbehandelten Kontrollen bonitiert. Beispielsweise bedeutet 100% Wirkung = Pflanzen sind abgestorben, 0% Wirkung = wie Kontrollpflanzen.
(§3) In den nachstehenden Tabellen A1 bis A11 sind die Wirkungen ausgewählter Verbindungen der allgemeinen Formel (I) gemäß der Tabelle 1 auf verschiedene Schadpflanzen und einer Aufwandmenge entsprechend 80 g/ha und niedriger, die gemäß zuvor genannter Versuchsvorschrift erhalten wurden, dargestellt. Tabelle A1a: Nachauflaufwirkung bei 5 g/ha gegen ABUTH in %

Lolium rigidum = experiment: Post-emergence herbicidal action against LOLRI (greenhouse pot test); conditions: visual rating after ca. 3 weeks vs untreated controls (100% = plants dead, 0% = like controls)
Description: as §1, §2, §3

Setaria viridis = experiment: Post-emergence herbicidal action against SETVI (greenhouse pot test)
Description: as §1, §2, §3

Veronica persica = experiment: Post-emergence herbicidal action against VERPE (greenhouse pot test)
Description: as §1, §2, §3

Amaranthus retroflexus = experiment: Post-emergence herbicidal action against AMARE (greenhouse pot test); conditions: visual rating after ca. 3 weeks vs untreated controls (100% = plants dead, 0% = like controls)
Description: as §1, §2, §3

Matricaria inodora = experiment: Post-emergence herbicidal action against MATIN (greenhouse pot test); conditions: for Nachauflaufwirkung gegen MATIN: visual rating after ca. 3 weeks vs untreated controls (100% = plants dead, 0% = like controls); for Nachauflaufwirkung gegen MATIN in %: 80 g/ha
Description: as §1, §2, §3

Triticum aestivum = experiment: Post-emergence action on crop plants, TRZAS (greenhouse pot test); conditions: crop plant
Description: as §1
as §2, with “Kulturpflanzen” for “Unkrautpflanzen”
as §3, with “B1” for “A1”, “B3” for “A11”, “Kulturpflanzen” for “Schadpflanzen”, “20” for “80”, “B1a:” for “A1a:”, “ZEAMX” for “ABUTH”

Oryza sativa = experiment: Post-emergence action on crop plants, ORYZA (greenhouse pot test); conditions: 5 g/ha
Description: as §1
as §2, with “Kulturpflanzen” for “Unkrautpflanzen”
as §3, with “B1” for “A1”, “B3” for “A11”, “Kulturpflanzen” for “Schadpflanzen”, “20” for “80”, “B1a:” for “A1a:”, “ZEAMX” for “ABUTH”

Polygonum convolvulus = experiment: Post-emergence herbicidal action against POLCO (greenhouse pot test)
Description: as §1, §2, §3

Zea mays = experiment: Post-emergence action on crop plants, ZEAMX (greenhouse pot test); conditions: 5 g/ha, crop plant
Description: as §1
as §2, with “Kulturpflanzen” for “Unkrautpflanzen”
as §3, with “B1” for “A1”, “B3” for “A11”, “Kulturpflanzen” for “Schadpflanzen”, “20” for “80”, “B1a:” for “A1a:”, “ZEAMX” for “ABUTH”

Digitaria sanguinalis = experiment: Post-emergence herbicidal action against DIGSA (greenhouse pot test); conditions: visual rating after ca. 3 weeks vs untreated controls (100% = plants dead, 0% = like controls)
Description: as §1, §2, §3

Pharbitis purpurea = experiment: Post-emergence herbicidal action against PHBPU (greenhouse pot test)
Description: as §1, §2, §3

Alopecurus myosuroides = experiment: Post-emergence herbicidal action against ALOMY (greenhouse pot test); conditions: visual rating after ca. 3 weeks vs untreated controls (100% = plants dead, 0% = like controls)
Description: as §1, §2, §3

Viola tricolor = experiment: Post-emergence herbicidal action against VIOTR (greenhouse pot test)
Description: as §1, §2, §3

SMILES | Nachauflaufwirkung gegen ABUTH (Abutilon theophrasti; 5 g/ha) | Nachauflaufwirkung gegen ABUTH (Abutilon theophrasti; 20 g/ha) | Nachauflaufwirkung gegen ABUTH (Abutilon theophrasti; 80 g/ha) | Nachauflaufwirkung gegen LOLRI (Lolium rigidum; 80 g/ha) | Nachauflaufwirkung gegen SETVI in % (Setaria viridis; 5 g/ha) | Nachauflaufwirkung gegen SETVI in % (Setaria viridis; 20 g/ha) | Nachauflaufwirkung gegen VERPE in % (Veronica persica; 5 g/ha) | Nachauflaufwirkung gegen VERPE in % (Veronica persica; 20 g/ha) | Nachauflaufwirkung gegen VERPE in % (Veronica persica; 80 g/ha) | Nachauflaufwirkung gegen AMARE (Amaranthus retroflexus; 5 g/ha) | Nachauflaufwirkung gegen AMARE (Amaranthus retroflexus; 20 g/ha) | Nachauflaufwirkung gegen AMARE (Amaranthus retroflexus; 80 g/ha) | Nachauflaufwirkung gegen MATIN (Matricaria inodora; 5 g/ha) | Nachauflaufwirkung gegen MATIN (Matricaria inodora; 20 g/ha) | Nachauflaufwirkung gegen MATIN in % (Matricaria inodora) | Nachauflaufwirkung gegen TRZAS in % (Triticum aestivum; 5 g/ha) | Nachauflaufwirkung gegen POLCO in % (Polygonum convolvulus; 5 g/ha) | Nachauflaufwirkung gegen POLCO in % (Polygonum convolvulus; 20 g/ha) | Nachauflaufwirkung gegen POLCO in % (Polygonum convolvulus; 80 g/ha) | Nachauflaufwirkung gegen DIGSA (Digitaria sanguinalis; 5 g/ha) | other results
COCCOC(=O)C(C)(C)OC(=O)c1cc(-n2c(=O)cc(C(F)(F)F)n(C)c2=O)c(F)cc1Cl [I.1-1] | 100% | 100% | 100% | 100% | 100% | 100% | 100% | 100% | 100% | 100% | 100% | 100% | 100% | 100% | 100% | 10% | 100% | 100% | 100% | 100% | Nachauflaufwirkung gegen LOLRI (Lolium rigidum; 20 g/ha): 100%; Nachauflaufwirkung gegen SETVI in % (Setaria viridis; 80 g/ha): 100%; Nachauflaufwirkung gegen ORYZA in % (Oryza sativa): 20%; Nachauflaufwirkung gegen ZEAMX in % (Zea mays): 10%; Nachauflaufwirkung gegen DIGSA (Digitaria sanguinalis; 20 g/ha): 100%; Nachauflaufwirkung gegen DIGSA (Digitaria sanguinalis; 80 g/ha): 100%; Nachauflaufwirkung gegen PHBPU in % (Pharbitis purpurea; 5 g/ha): 80%; Nachauflaufwirkung gegen PHBPU in % (Pharbitis purpurea; 20 g/ha): 100%; Nachauflaufwirkung gegen PHBPU in % (Pharbitis purpurea; 80 g/ha): 100%; Nachauflaufwirkung gegen ALOMY (Alopecurus myosuroides; 20 g/ha): 100%; Nachauflaufwirkung gegen ALOMY (Alopecurus myosuroides; 80 g/ha): 100%; Nachauflaufwirkung gegen VIOTR in % (Viola tricolor; 5 g/ha): 100%; Nachauflaufwirkung gegen VIOTR in % (Viola tricolor; 20 g/ha): 100%; Nachauflaufwirkung gegen VIOTR in % (Viola tricolor; 80 g/ha): 100%
Cn1c(C(F)(F)F)cc(=O)n(-c2cc(C(=O)OC(C)(C)C(=O)OCC#N)c(Cl)cc2F)c1=O [I.1-176, 1-(Cyanmethoxy)-2-methyl-1-oxopropan-2-yl-2-chlor-4-fluor-5-[3-methyl-2,6-dioxo-4-(trifluormethyl)-3,6-dihydropyrimidin-1(2H)-yl]benzoat] | 100% | 100% | 100% | 90% | 100% | 100% | 100% | 100% | 100% | 100% | 100% | 100% | 100% | 100% | 100% | 10% | 100% | 100% | 100% | 100% | Nachauflaufwirkung gegen SETVI in % (Setaria viridis; 80 g/ha (dose column; title A9c prints 20 g/ha)): 100%; Nachauflaufwirkung gegen TRZAS in % (Triticum aestivum; 20 g/ha): 10%; Nachauflaufwirkung gegen DIGSA (Digitaria sanguinalis; 20 g/ha): 100%; Nachauflaufwirkung gegen DIGSA (Digitaria sanguinalis; 80 g/ha): 100%; Nachauflaufwirkung gegen PHBPU in % (Pharbitis purpurea; 5 g/ha): 100%; Nachauflaufwirkung gegen PHBPU in % (Pharbitis purpurea; 20 g/ha): 100%; Nachauflaufwirkung gegen PHBPU in % (Pharbitis purpurea; 80 g/ha): 100%; Nachauflaufwirkung gegen ALOMY (Alopecurus myosuroides; 20 g/ha): 80%; Nachauflaufwirkung gegen ALOMY (Alopecurus myosuroides; 80 g/ha): 100%; Nachauflaufwirkung gegen VIOTR in % (Viola tricolor; 5 g/ha): 100%; Nachauflaufwirkung gegen VIOTR in % (Viola tricolor; 20 g/ha): 100%; Nachauflaufwirkung gegen VIOTR in % (Viola tricolor; 80 g/ha): 100%
